This data set can be described thus: in vitro. As to conditions: rat, gh3-tre-luc cells.

Structures can show the parent of a compound that is named as a salt.

What is called CC50 is the concentration that lowers cell viability or growth by half. A higher CC50 goes with lower toxicity to the cells. In the case of `CCOc1ccc(NC(=O)CC(C)=O)cc1` [N-(4-Ethoxyphenyl)-3-oxobutanamide], for the setting “AC50 (uM) modified / 1000”, the CC50 at 24 h is > 90 µM.

For the compound `Nc1ccc(N)c2ccccc12` [1,4-Naphthalenediamine], the CC50 at 24 h (AC50 (uM) modified / 1000) was > 90 µM.

As to `CNS(=O)(=O)CCc1ccc2[nH]cc(C3CCN(C)CC3)c2c1` [Naratriptan hydrochloride], the CC50 at 24 h (AC50 (uM) modified / 1000) was > 50 µM. As for `CN1[C@@H]2CC[C@H]1CC(O)C2` (stereo partly drawn) [Tropine], the CC50 at 24 h (AC50 (uM) modified / 1000, Tox21_110001=Tox21_202725, viability, 1 nM T3 present, 24 h) was > 100 µM.

On to `Cl/C=C/Cl` [(E)-1,2-Dichloroethylene], for which the CC50 at 24 h (AC50 (uM) modified / 1000, Tox21_110001=Tox21_202419, viability, 1 nM T3 present, 24 h) is > 90 µM. On to `CCN(CCCc1ccccc1)CCCc1ccccc1` [Alverine citrate], for which, where the note is “AC50 (uM) modified / 1000”, the CC50 at 24 h is > 20 µM.

With `CC/C=C\CCO` [(Z)-3-Hexen-1-ol], the CC50 at 24 h (AC50 (uM) modified / 1000) is > 90 µM.

Take `OCCNCc1ccccc1` [N-Benzylethanolamine]: the CC50 at 24 h (AC50 (uM) modified / 1000) was > 90 µM. Same read-out and setting: under `CCCCOCCOCCO` [2-(2-Butoxyethoxy)ethanol] stands > 90 µM; under `BrCc1cccc(Oc2ccccc2)c1` [1-(Bromomethyl)-3-phenoxybenzene], > 90 µM. The same measure, in the same setting: under `COc1cc2c(N3CCN(C(=O)Nc4ccc(OC(C)C)cc4)CC3)ncnc2cc1OCCCN1CCCCC1` [Tandutinib] stands 11.4 µM. The same measure, in the same setting: under `Cn1c(N)c(N=O)c(=O)n(C)c1=O` [6-Amino-1,3-dimethyl-5-nitroso-2,4(1H,3H)-pyrimidinedione] stands > 90 µM; under `Cc1cc(N)c(S(=O)(=O)O)cc1Cl` [2-Amino-5-chloro-4-methylbenzenesulfonic acid], > 90 µM; under `C/C=C1\C(=O)C[C@H]2[C@@H]3CCC4=CC(=O)CC[C@]4(C)[C@H]3CC[C@]12C` [Guggulsterone Z], > 50 µM.

In the case of `O=P1(NCCCl)OCCCN1CCCl` (stereo not drawn) [Ifosfamide], the CC50 at 24 h (AC50 (uM) modified / 1000, Tox21_110001=Tox21_110539, viability, 1 nM T3 present, 24 h) is > 20 µM and the CC50 at 24 h (AC50 (uM) modified / 1000, Tox21_110001=Tox21_201815, viability, 1 nM T3 present, 24 h) was > 90 µM. For the compound `COc1ccc2[nH]cc(CCNC(C)=O)c2c1` [Melatonin], where the note is “AC50 (uM) modified / 1000”, the CC50 at 24 h is > 90 µM. With `NCCCCCCN` [1,6-Hexanediamine], the CC50 at 24 h (AC50 (uM) modified / 1000) is > 90 µM.

Consider `CC(C)COC(=O)CCCCC(=O)OCC(C)C` [Diisobutyl adipate], for which, where the note is “AC50 (uM) modified / 1000”, the CC50 at 24 h is > 90 µM.

Turning to `O=C(NCCO[N+](=O)[O-])c1cccnc1` [Nicorandil], the CC50 at 24 h (AC50 (uM) modified / 1000) is > 50 µM. Consider `CCCC[C@H](CC)COC(=O)/C=C/c1ccc(OC)cc1` [Octinoxate], for which the half-maximal cytotoxic concentration (CC50) at 24 h (AC50 (uM) modified / 1000) was > 90 µM. Turning to `O=S1OC[C@@H]2[C@H](CO1)[C@]1(Cl)C(Cl)=C(Cl)[C@@]2(Cl)C1(Cl)Cl` (stereo partly drawn) [Endosulfan I], for the setting “AC50 (uM) modified / 1000, Tox21_110001=Tox21_301581, viability, 1 nM T3 present, 24 h”, it took 69.4 µM to reach half-maximal cytotoxicity (CC50 at 24 h). Consider `CC(C)(C)c1cc(CCC(=O)OCC(COC(=O)CCc2cc(C(C)(C)C)c(O)c(C(C)(C)C)c2)(COC(=O)CCc2cc(C(C)(C)C)c(O)c(C(C)(C)C)c2)COC(=O)CCc2cc(C(C)(C)C)c(O)c(C(C)(C)C)c2)cc(C(C)(C)C)c1O` [Irganox 1010], for which, under “AC50 (uM) modified / 1000”, the CC50 at 24 h was > 40 µM. Regarding `CCOCC(=O)O` [Ethoxyacetic acid], under “AC50 (uM) modified / 1000”, the CC50 at 24 h is > 90 µM. Same read-out and setting: the result for `CCCCCCCOC(C)=O` [Heptyl acetate] reads > 90 µM; that for `Cc1cc(=O)nc(C(C)C)[nH]1` [2-Isopropyl-6-methyl-4-pyrimidone], > 90 µM; that for `CCN(CC)CCOc1ccc(Cc2ccccc2)cc1` [Tesmilifene], 10.9 µM. Turning to `CCCCN(CCCC)CCCC` [Tributylamine], the CC50 at 24 h (AC50 (uM) modified / 1000) was > 90 µM. The same measure, in the same setting: the result for `CN1CCOC(c2ccccc2)c2ccccc2C1` (stereo not drawn) [Nefopam hydrochloride] reads > 20 µM; that for `CCCCNc1ccc(C(=O)OCCN(CC)CC)cc1` [Depolipon], > 50 µM; that for `CCCCN1CCCC[C@H]1C(=O)Nc1c(C)cccc1C` [Levobupivacaine hydrochloride], > 50 µM. Same read-out and setting: the result for `CN(C)C(=O)NC1(c2ccccc2)CCN(CCC[C@]2(c3ccc(Cl)c(Cl)c3)CCCN(C(=O)c3ccccc3)C2)CC1` [SSR146977] reads 8.07 µM; that for `Cc1ccc(-c2c(Cl)nc(C#N)n2S(=O)(=O)N(C)C)cc1` [Cyazofamid], 40.3 µM. As to `O=C(O)c1cccc(Cl)c1Cl` [2,3-Dichlorobenzoic acid], the CC50 at 24 h (AC50 (uM) modified / 1000) is > 90 µM. Same read-out and setting: under `O=C(O)Cn1c(=O)n(Cc2ccc(Br)cc2F)c(=O)c2ccc(Cl)cc21` [Zenarestat] stands > 90 µM; under `CS(=O)(=O)Nc1cc2occ(NC=O)c(=O)c2cc1Oc1ccccc1` [Iguratimod], > 50 µM; under `CCc1nn(C2CCCCC2)c2cc(C3(C#N)CCC(C(=O)O)CC3)ccc12` (stereo not drawn) [CP-401387], 49.9 µM.

As to `CCCCCCCCC1CO1` (stereo not drawn) [1,2-Epoxydecane], the CC50 at 24 h (AC50 (uM) modified / 1000) was > 90 µM. Same read-out and setting: the result for `CNC(=O)[C@H](Cc1c[nH]c2ccccc12)NC(=O)[C@@H](CC(=O)NO)CC(C)C` [Ilomastat] reads 1.28 µM. On the same count and under the same terms, the result for `O=C(O)c1ccc(CO)o1` [5-(Hydroxymethyl)-2-furoic acid] reads > 90 µM. Same read-out and setting: under `CC1=NN(c2ccc(S(=O)(=O)O)cc2)C(=O)C1N=Nc1ccccc1` (stereo not drawn) [Acid Yellow 11] stands 69.4 µM; under `CN(C)C(=O)Oc1cccc([N+](C)(C)C)c1` [Neostigmine bromide], > 50 µM. For `Cn1c(=O)c2[nH]cnc2n(C)c1=O` [Theophylline], where the note is “AC50 (uM) modified / 1000”, the CC50 at 24 h is > 90 µM.

Regarding `NCC[C@H](O)C(=O)N[C@@H]1C[C@H](N)[C@@H](O[C@H]2O[C@H](CN)CC[C@H]2N)[C@H](O)[C@H]1O[C@H]1O[C@H](CO)[C@@H](O)[C@H](N)[C@H]1O` [Arbekacin sulfate], the CC50 at 24 h (AC50 (uM) modified / 1000) is > 50 µM. Still for that read-out and setting: under `c1ccc2cnncc2c1` [Phthalazine] stands > 90 µM; under `CC(CCc1ccc2c(c1)OCO2)NN` (stereo not drawn) [Safrazine hydrochloride], > 50 µM; under `CCNc1cccc(C)c1` [N-Ethyl-3-methylaniline], > 90 µM. Same read-out and setting: under `CCCCCCCCCCCC[N+](C)(C)Cc1ccccc1` [Benzyldimethyldodecylammonium chloride] stands 10.6 µM; under `CO[Si](CCCCl)(OC)OC` [(3-Chloropropyl)trimethoxysilane], > 90 µM; under `CC(C)CC(O)CC(C)C` [2,6-Dimethyl-4-heptanol], > 90 µM. Same read-out and setting: the result for `O=C(O)C(F)(F)C(F)(F)C(F)(F)C(F)(F)C(F)(F)C(F)(F)C(F)(F)C(F)(F)F` [Perfluorononanoic acid] reads > 90 µM; that for `CC(=O)CC(C)C` [4-Methyl-2-pentanone], > 90 µM; that for `CC(=O)O[C@H]1C[C@@H]2CC[C@@H]3[C@H](CC[C@@]4(C)[C@H]3C[C@H]([N+]3(C)CCCCC3)[C@@H]4OC(C)=O)[C@@]2(C)C[C@@H]1[N+]1(C)CCCCC1` [Pancuronium bromide], > 50 µM.

With `CC(C)(O)C(=O)c1ccc(OCCO)cc1` [2-Hydroxy-1-[4-(2-hydroxyethoxy)phenyl]-2-methylpropan-1-one], for the setting “AC50 (uM) modified / 1000”, the CC50 at 24 h was > 90 µM. As for `CCCCN(CCCC)C(=S)S` [Sodium dibutylcarbamodithioate], the CC50 at 24 h (AC50 (uM) modified / 1000) is > 90 µM.

Turning to `CCC[Si](OC)(OC)OC` [Trimethoxypropylsilane], the CC50 at 24 h (AC50 (uM) modified / 1000) is > 90 µM. For the compound `Brc1c(NC2=NCCN2)ccc2nccnc12` [Brimonidine], under “AC50 (uM) modified / 1000”, the CC50 at 24 h is > 50 µM. On the same count and under the same terms, the result for `Cc1cc(=O)oc2cc(N(C)C)ccc12` [7-(Dimethylamino)-4-methylcoumarin] reads > 90 µM; that for `c1ccc2c(CC3=NCCN3)cccc2c1` [Naphazoline hydrochloride], > 50 µM. Still for that read-out and setting: under `O=C(OCC(COC(=O)c1cccnc1)(COC(=O)c1cccnc1)COC(=O)c1cccnc1)c1cccnc1` [Niceritrol] stands > 50 µM; under `C=C1CC[C@H](O)C/C1=C/C=C1\CCC[C@]2(C)[C@@H]([C@H](C)CC[C@@H](O)C(C)(C)O)CC[C@@H]12` [24R,25-Dihydroxyvitamin D3], 23.4 µM; under `CCCCCCC` [Heptane], > 100 µM. On the same count and under the same terms, the result for `C=CCCC=C` [1,5-Hexadiene] reads > 90 µM; that for `CCC[C@H](N[C@@H](C)C(=O)N1[C@H](C(=O)O)C[C@@H]2CCCC[C@@H]21)C(=O)OCC` [Perindopril], > 50 µM. As for `CC(Cl)(Cl)Cl` [1,1,1-Trichloroethane], the CC50 at 24 h (AC50 (uM) modified / 1000) is > 90 µM.

As to `CCN(CC)c1nc(C)cc(OP(=S)(OC)OC)n1` [Pirimiphos-methyl], the CC50 at 24 h (AC50 (uM) modified / 1000, Tox21_110001=Tox21_300718, viability, 1 nM T3 present, 24 h) was > 90 µM. Turning to `CCOc1ccc(O)cc1` [4-Ethoxyphenol], the CC50 at 24 h (AC50 (uM) modified / 1000) was > 90 µM. Still for that read-out and setting: the result for `O=C(O)CCCCCCCCCCCBr` [12-Bromododecanoic acid] reads > 90 µM.

`C=C1/C(=C\C=C2/CCC[C@]3(C)[C@@H]([C@H](C)CCCC(C)C)CC[C@@H]23)C[C@@H](O)C[C@@H]1O` [Alfacalcidol] yielded a CC50 at 24 h (AC50 (uM) modified / 1000) of 14.8 µM. That is a double-digit micromolar value. For `Cc1cc2c(cc1C(F)(F)F)N(C(=O)Nc1ccc(Oc3cccnc3C)nc1)CC2` [SB243213A], the midpoint of cytotoxicity (AC50 (uM) modified / 1000), the CC50 at 24 h, lay at 69.4 µM. Compared with the last compound, the CC50 at 24 h is about 4.7-fold higher. In turn, `CCCCCCOC(=O)c1ccc(O)cc1` [Hexylparaben] showed a CC50 at 24 h (AC50 (uM) modified / 1000) of 56.8 µM. Turning to `O=C[C@H](O)[C@H]1OC(=O)[C@@H](O)[C@H]1O` [D-Glucuronolactone], the CC50 at 24 h (AC50 (uM) modified / 1000) was > 90 µM.

Turning to `CC1=CC(C)C(C=O)CC1` (stereo not drawn) [2,4-Dimethyl-3-cyclohexene-1-carboxaldehyde], where the note is “AC50 (uM) modified / 1000”, the CC50 at 24 h is > 90 µM.

For `C[C@]12C=CC(=O)C=C1CC[C@H]1[C@@H]3C[C@@H](O)[C@](O)(C(=O)CO)[C@@]3(C)C[C@H](O)[C@@]12F` [Triamcinolone], the CC50 at 24 h (AC50 (uM) modified / 1000) is > 90 µM. On to `CC1(C)CON(Cc2ccccc2Cl)C1=O` [Clomazone], for which, where the note is “AC50 (uM) modified / 1000”, the half-maximal cytotoxic concentration (CC50) at 24 h is > 90 µM.

The values above are taken from publication PMC6792352, “Limited Chemical Structural Diversity Found to Modulate Thyroid Hormone Receptor in the Tox21 Chemical Library” (Environmental Health Perspectives, 2019).
